Calls of active or inactive are those of the source.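 How the source made its calls: active means IC50 below 100 µM in the TR-FRET assay, unless also active in the caspase-3 counter assay; inactive means the rest, including compounds also active in caspase-3.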
Molecular target: Caspase-3 (Homo sapiens) (UniProt P42574)
Assay: inhibition of recombinant caspase-3 activity – biochemical, luminescence, Caspase-Glo 3/7, set 2, counter-screen for UBC13 polyubiquitin inhibitor project, SAR follow-up (AID 588375)
Conditions: recombinant caspase-3, Caspase-Glo luminescence, 60 min

Caspase-3 (Homo sapiens), sequence (P42574 whole entry, looked up): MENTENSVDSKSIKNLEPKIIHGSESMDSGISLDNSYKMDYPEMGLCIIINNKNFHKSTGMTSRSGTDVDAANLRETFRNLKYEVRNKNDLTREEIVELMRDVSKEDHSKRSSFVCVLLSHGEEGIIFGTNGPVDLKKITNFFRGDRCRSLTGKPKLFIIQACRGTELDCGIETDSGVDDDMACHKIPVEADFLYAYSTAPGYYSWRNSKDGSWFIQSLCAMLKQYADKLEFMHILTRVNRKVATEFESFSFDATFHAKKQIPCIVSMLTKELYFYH

IC50	Compound
> 100 µM (inactive)	Cc1nc2cc(F)ccc2n1C1CCN(CC(=O)Nc2ccccc2)CC1
> 100 µM (inactive)	COc1ccc(OC)c(NC(=O)CN2CCC(n3c(C)nc4cc(F)ccc43)CC2)c1
> 100 µM (inactive)	O=C(CN1CCC(n2cnc3cc(F)ccc32)CC1)Nc1cccc(C(F)(F)F)c1
> 100 µM (inactive)	O=C(CN1CCC(n2cnc3cc(F)ccc32)CC1)Nc1ccccc1Br
> 100 µM (inactive)	COc1ccc(OC)c(NC(=O)CN2CCC(n3cnc4cc(F)ccc43)CC2)c1
> 100 µM (inactive)	Cc1cccc(NC(=O)CN2CCC(n3cnc4cc(F)ccc43)CC2)c1C
> 100 µM (inactive)	O=C(CN1CCC(n2c(C(F)(F)F)nc3cc(F)ccc32)CC1)Nc1ccc2c(c1)OCO2
> 100 µM (inactive)	CCOc1ccc(NC(=O)CN2CCC(n3cnc4cc(F)ccc43)CC2)cc1
> 100 µM (inactive)	CCOc1ccccc1NC(=O)CN1CCC(n2cnc3cc(F)ccc32)CC1
> 100 µM (inactive)	COc1ccc(NC(=O)CN2CCC(n3c(C)nc4cc(F)ccc43)CC2)c(OC)c1
> 100 µM (inactive)	O=C(CN1CCC(n2cnc3cc(C(F)(F)F)ccc32)CC1)Nc1ccc2c(c1)OCCO2

Continued, compound first:

Compound	IC50
COc1ccccc1N1CCN(CCCNC(=O)C2CCCN(c3ncnc4c3nc3n4CCCCC3)C2)CC1 (configuration not stated)	> 100 µM (inactive)
Cc1nc2ccccc2n1C1CCN(CC(=O)Nc2ccccc2Oc2ccccc2)CC1	> 100 µM (inactive)
O=C(NCCCN1CCN(c2ccccc2)CC1)C1CCCN(c2ncnc3c2nc2n3CCCCC2)C1 (configuration not stated)	> 100 µM (inactive)
O=C(C1CCN(c2ncnc3c2nc2n3CCCCC2)CC1)N1CCN(c2ncccn2)CC1	> 100 µM (inactive)
Cc1cccc(N2CCN(CCCNC(=O)C3CCCN(c4ncnc5c4nc4n5CCCCC4)C3)CC2C)c1 (configuration not stated)	> 100 µM (inactive)
CC1(C)Cc2c(sc(NC(=O)C(=O)NCC3CCCO3)c2C(N)=O)CO1 (configuration not stated)	> 100 µM (inactive)
O=C(C1CCN(c2ncnc3c2nc2n3CCCCC2)CC1)N1CCN(c2ccc(F)cc2)CC1	> 100 µM (inactive)
O=C(NCCCN1CCN(c2ccc(F)cc2)CC1)C1CCCN(c2ncnc3c2nc2n3CCCCC2)C1 (configuration not stated)	> 100 µM (inactive)
O=C(c1ccco1)N1CCN(C(=O)C2CCN(c3ncnc4c3nc3n4CCCCC3)CC2)CC1	> 100 µM (inactive)
Cc1ccc(C)c(N2CCN(CCCNC(=O)C3CCCN(c4ncnc5c4nc4n5CCCCC4)C3)CC2)c1 (configuration not stated)	> 100 µM (inactive)
O=C(C1CCN(c2ncnc3c2nc2n3CCCCC2)CC1)N1CCN(Cc2ccccc2)CC1	> 100 µM (inactive)
O=C(C1CCN(c2ncnc3c2nc2n3CCCCC2)CC1)N1CCN(c2ccccn2)CC1	> 100 µM (inactive)
CC1(C)Cc2c(sc(NC(=O)C(=O)NCC3CCCO3)c2C(=O)O)CO1 (configuration not stated)	> 100 µM (inactive)
CC1(C)Cc2c(sc(NC(=O)C(=O)N3CCCC3)c2C(N)=O)CO1	> 100 µM (inactive)
CC1(C)Cc2c(sc(NC(=O)C(=O)NCCN3CCOCC3)c2C(N)=O)CO1	> 100 µM (inactive)
COC(=O)c1c(NC(=O)C(=O)NCC2CCCO2)sc2c1CC(C)(C)OC2 (configuration not stated)	> 100 µM (inactive)

— PubChem BioAssay AID588375 (Sanford-Burnham Center for Chemical Genomics, 2011)
